# Test results from patent EP3441078A1, “PHARMACEUTICAL PRODUCT FOR TREATING LUPUS ERY[…] COMBINED IMMUNE DEFECT, AND PREPARATION AND APPLICATION THEREOF” (Beijing Lu De Kai Qi Co., Ltd., priority 2016, dated 2017).
# Where two headings read alike, the source gives them in different places. Marks after values point to notes of the source that are not given here.
# Tests used:
# [1] = test system: sperm abnormality in mice; settings: male mice, 40mg/kg•bw, positive control
# Procedure: 1. […] The walnut extract, wormwood extract, American ginseng extract and shí hú extract were respectively taken, treated in a 70°C water bath for 1 hour, soaked for 12 hours, and concentrated for testing.
# (§1) The healthy Kunming mice provided by the Experimental Animal Center of the National Institute for the Control of Pharmaceutical and Biological Products were selected.
# 50 sexually mature male mice weighing 30-35 g were randomly divided into 5 groups. […] The doses of the anti-lupus erythematosus pharmaceutical product for combined immunization according to the present invention were 2.00, 4.00, and 6.00 g/kg•bw, respectively, and the desired concentration were adjusted with distilled water. The mice were administered via oral gavage once a day for 5 days, and the animals were sacrificed 30 days after the last gavage. The epididymis was acquired and sectioned and stained with eosin. Five animals were counted in each group and 1000 intact sperm were counted per animal. The incidence of sperm abnormality (in percentage) was calculated and statistically processed.
# [2] = test system: polychromatic erythrocytes in bone marrow of mice; settings: 50mg/kg•bw, positive control; for Number of Micronuclei(in Ge): 5000 cells inspected; for Permillage of Micronuclei: P<0.01 vs negative control
# Procedure: as §1
# The assay was carried out via oral gavage and the administration was performed twice at intervals of 24 hrs. 50 mice weighing 25-30 g were randomly divided into 5 groups according to body weight, 10 in each group, half male and half female. […] The doses of the anti-lupus erythematosus pharmaceutical product for combined immunization according to the present invention were 2.00, 4.00, and 6.00 g/kg•bw, respectively, which were adjusted to the desired concentration with distilled water. The animals were sacrificed by cervical dislocation six hours after the last administration of the anti-lupus erythematosus pharmaceutical product for combined immunization according to the present invention. The bone marrow of sternum was acquired and diluted with calf serum, smeared, fixed in methanol, and stained with Giemsa. Under the light microscope, 1000 polychromatic erythrocytes (PRC) were measured per animal, and the incidence of micronucleus was determined by the permillage of micronucleus-containing PRC and statistically processed. […] Kunming healthy mice provided by Laboratory Animal Center of National Institutes for Food and Pharmaceutical product Control were selected.
# The test was carried out by two-time intragastric administration at an interval of 24 hours.50 mice weighing 25-30 g were randomly divided into 5 groups according to their body weight. They were randomly divided into 5 groups according to their body weight, with 10 mice in each group, half male and half female. […] The doses of the anti-lupus erythematosus pharmaceutical product for combined immunization of the present invention were 2.00, 4.00 and 6.00 g/kg•bw respectively, and were mixed with distilled water to the desired concentration. The animals were sacrificed by cervical dislocation 6 hours after the last administration of the anti-lupus erythematosus pharmaceutical product for combined immunization of the present invention. The sternum bone marrow was diluted with calf serum, fixed with methanol, and stained with Giemsa. Under the light microscope, 1000 polychromatic erythrocytes (PRC) were counted per animal, and the incidence of micronuclei was measured by the permillage of micronucleus-containing PRC and statistically processed.
structure (smiles),measurement,setting,value
"O=P1(N(CCCl)CCCl)NCCCO1 (stereo not drawn) [cp, cyclophosphamide]",Number of Abnormal Sperms(in Ge),[1]; 5000 sperms inspected,480
same,Percentage of Abnormal Sperms,[1]; P<0.01 vs negative control,9.6* %
same,Number of Micronuclei(in Ge),[2]; Female mice,150
same,Permillage of Micronuclei,[2]; Female mice,30.0* ‰
same,Number of Micronuclei(in Ge),[2]; Male mice,150
same,Permillage of Micronuclei,[2]; Male mice,30.0* ‰
